Reference: patent US5514654A, “N-acyldipeptides, processes for the preparation thereof and pharmaceutical compositions containing the same” (priority 1990, dated 1996)
“And” between values parts separate entries of the source, which are not always exact repeats. Equal values may be shown once.

Assays:
[1] = tested on: splenic lymphocytes B and lymphocytes T; experiment: Determination of the number of lymphocytes B and lymphocytes T; assay type: in vivo, female HAN-NmRI strain mice; settings: 25, 2.5 and 0.25 μg by injection on 3 consecutive days after Brewer's thioglycolate medium i.p.; spleen isolated day 4
Experimental: (§1) Immunological studies were performed on female HAN-NmRI strain mice of 3-4 weeks, weighing from 18-21 g.
(§2) In tests 1.1 to 1.5, the animals were first administered the Brewer's thioglycolate medium by i.p. injection, which was followed after 6 hours by the injection of 0.5 ml of a solution containing 25 μg, 2.5 μg and 0.25 μg respectively of N-acetyl-muramyl-L-alanyl-D-isoglutamine (muramyl dipeptide, MDP) or of N-(7-oxooctanoyl)-L-alanyl-D-isoglutamine (compound 1, Example 19). Equal doses were administered to the animals on days 2 and 3. On day 4 the animals were sacrificed and the spleen and the peritoneal macrophages were isolated.
To the isolated splenic lymphocytes there were added fluorescein isothiocyanate labelled antimouse antibodies (for the determination of lymphocytes B) and anti-Thy 1 monoclonal antibodies (for the determination of lymphocytes T) respectively. After incubation and rinsing with RPMI 1640 medium (Gibco, Great Britain), the lymphocytes were counted by fluorescence microscopy.

[2] = Pyrogenous activity according to the method of USP XXII; assay type: in vivo
Experimental: The pyrogenous activity was determined according to the method of USP XXII.

lymphocytes B = experiment: Determination of haemolytic plaques for the assessment of the maturation of lymphocytes B; assay type: in vivo, female HAN-NmRI strain mice; settings: 1 μg/mouse one day after sheep erythrocytes i.p.; control 86±12.7
Experimental: as §1
A 1% suspension of sheep erythrocytes (Institute of Microbiology, Faculty of Medicine, Ljubljana, Yugoslavia) in physiological saline was used for the immunisation. First, individual mice were administered 0.2 ml of this suspension by i.p. injection, followed next day by 0.1 ml (1 μg/mouse) of the test substance. The immunisation was completed on the fifth day after the administration of sheep erythrocytes and the mice were sacrificed.
Their spleens were removed and homogenized in Parker 199 Medium with added amminoacids, streptomycin and sodium carbonate (Torlak, Beograd, Yugoslavia). The lymphocytes were separated on the Ficol Separating Medium (Pharmacia, Uppsala, Sweden). After repeated rinsing with Parker 199 Medium, the cells were resuspended in RPMI 1640 nutrient medium with added 10% of fetal calf serum and streptomycin. To 50 μl of the cell suspension, 450 μl of trypan blue were added and the cells were counted in Neubauer's chamber. The number of lymphocytes per ml of the cell suspension was calculated. […] After the completion of the incubation, the plaques were counted under microscope.
The number of plaques per 1×10^6 cells was calculated according to the following equations: [formula]

[3] = tested on: splenic lymphocytes (lymphocytes T); experiment: Blast transformation of lymphocytes by mithogens (concanavalin A, tritium labelled thymidine incorporation); assay type: in vivo, female HAN-NmRI strain mice; settings: for Amount of active thymidine incoporated in lymphocyte DNA (cpm), x ± s.e.m: lymphocytes stimulated in vitro with concanavalin A
Experimental: as §1, §2
Isolated splenic lymphocytes were prepared in a concentration of 1×10^6 /ml in the RPMI 1640 medium, to which there were added 10% of foetal calf serum (FCS) (Sera-Lab, Great Britain), 1 ml of 200 mM L-glutamine solution and 1 ml of an antibiotic solution (100 U/ml of penicillin and 100 μg/ml of streptomycin) for 100 ml of complete medium. To each flat bottom well of a microtitration plate (T grade, Nunc, Denmark) 100 μl of the cell suspension were distributed. The cells were stimulated in vitro by adding concanavalin A (con A) (Pharmacia, Sweden) at respective concentrations of 16, 8, and 4 μg/ml. Control lymphocyte cultures were grown in basal medium only. The cells were then incubated at 37° C., 5% CO2 and 95% humidity for 2 days, followed by the addition of tritium labelled thymidine. After 16 hours the samples were prepared for the measurement in a β-counter. The results were expressed as incorporation indexes with respect to the control group of the animals.

peritoneal macrophages [4] = experiment: Determination of the number of macrophages; assay type: in vivo, female HAN-NmRI strain mice; settings: 25, 2.5 and 0.25 μg on 3 consecutive days; peritoneal cavity washings three days after thioglycolate stimulation
Experimental: as §1, §2
The number of macrophages in the peritoneal cavity washings was determined three days after the stimulation with Brewer's thioglycolate medium. The cells were suspended in ice-cold RPMI 1640 medium, to which trypan blue was added, and counted in Neubauer's chamber.

peritoneal macrophages [5] = experiment: Activation of peritoneal macrophages without additional in vitro stimulation with PMA (ferricytochrome C reduction); assay type: in vivo, female HAN-NmRI strain mice; settings: for increase of macrophage activity: versus control
Experimental: as §1, §2
(§3) The peritoneal cavity of the animals was rinsed with 4 ml of ice-cold RPMI 1640 medium. The cytolysis of erythrocytes was effected with 0.2% NaCl. The remaining cells were washed twice in a cooled centrifuge at 4° C. and 1500 rpm for 5 minutes with ice-cold RPMI 1640 medium. The cells were re-suspended and the concentration was adjusted to 1.5×10^6/ml. The cell suspension was distributed among the flat bottom wells of a microtitration plate (T grade, Nunc, Denmark). After incubating for 2 hours at 37° C., 5% CO2 and 95% humidity, the wells were rinsed with warm RPMI 1640 medium and the adhering macrophages were used for testing.
(§4) After incubating for 90 minutes at 37° C., 5% CO2 and 95% humidity, the absorbance was measured at the wavelength of 570 nm.
(§5) The results are shown in Table 2 as the difference in the absorbance of the test sample and of the blank, calculated for 1 mg of cell protein.

[6] = Toxicity, average lethal dose (LD50); assay type: in vivo
Fibrosarcoma SA-1 = experiment: Antitumour activity, tumour growth delay; assay type: in vivo, A/J strain mice; settings: for Time needed for the tumour growth to the volume of 150 mm^3, Number of days (± SD) / Growth delay (± SD): 5 doses; for Time needed for the tumour growth to the volume of 150 mm^3, Number of days (± SD): control 5.5 ± 0.8; for Growth delay (± SD): versus control group
Experimental: The studies were performed on A/J strain mice (Institute Rudjer Boskovic, Zagreb, Yugoslavia) of 8 to 10 weeks. All animals used in the same experiment were of the same sex and age.
Fibrosarcoma SA-1 was used as the experimental tumour model. Tumorous cells were obtained from the ascitic form of the SA-1 tumour of the syngeneic A/J mouse. They were implanted into animals dorsilaterally by s.c. injection of 5×10^5 live tumour cells. The testing was started after the tumours had grown to a volume of 35 mm^3. The test substance was injected i.p. on five consecutive days in a dose of 2.5 or 25 μg. The growth of the tumours was monitored by measuring the diameters and the thickness of the tumours. The tumour volumes were calculated according to the formula 0.523×a×b×c (a, b and c being the tumour diameters).
The delay in the growth of each individual tumour was obtained by deducting the relevant time of growth of the tumour in the control group from the time needed for the growth of the tumour to reach the volume of 150 mm^3.

peritoneal macrophages [7] = experiment: Activation of peritoneal macrophages with additional in vitro stimulation with PMA (ferricytochrome C reduction); assay type: in vivo, female HAN-NmRI strain mice; settings: for increase of macrophage activity: versus control
Experimental: as §1, §2, §3, §4, §5

[8] = daily dose 0.25 μg for 3 consecutive days
[9] = daily dose 2.5 μg for 3 consecutive days
[10] = daily dose 25 μg for 3 consecutive days

## CC(=O)CCCCCC(=O)N[C@@H](C)C(=O)N[C@H](CCC(=O)O)C(N)=O [Compound 1, N-(7-oxooctanoyl)-L-alanyl-D-isoglutamine]
[1]
  number of splenic lymphocytes B: Neither the number of splenic lymphocites B nor of lymphocytes T was altered to a statistically significant extent
  number of splenic lymphocytes T: Neither the number of splenic lymphocites B nor of lymphocytes T was altered to a statistically significant extent
[2]
  pyrogenous activity: did not show any pyrogenous activity
Lymphocytes B
  number of plaques (per 1×10^6 cells), x±s.e.m: 170±39.9 and 245±75.5
[3]; [8]
  Amount of active thymidine incoporated in lymphocyte DNA (cpm), x ± s.e.m: 16860 ± 5210 cpm
[3]; [9]
  Amount of active thymidine incoporated in lymphocyte DNA (cpm), x ± s.e.m: 19080 ± 5470 cpm
[3]; [10]
  Amount of active thymidine incoporated in lymphocyte DNA (cpm), x ± s.e.m: 16380 ± 2950 cpm
[3]; dose of 25 μg
  immunomodulatory effect in lymphocytes T compared with MDP: statistically greater
[3]; dose of 25 μg, concanavalin A, versus control, p<0.05
  increase of the blastic activity of lymphocytes T: about 70%
Peritoneal macrophages [4]
  number of peritoneal macrophages: not altered to a statistically significant extent
Peritoneal macrophages [5]; 0.25 to 25 μg
  dose dependence of macrophage activation: dose-dependent
Peritoneal macrophages [5]; daily dose 0.25 μg
  Difference in absorbancies of the test sample and of the blank per mg of cell protein, x ± s.e.m: 273 ± 40
Peritoneal macrophages [5]; daily dose 2.5 μg
  Difference in absorbancies of the test sample and of the blank per mg of cell protein, x ± s.e.m: 387 ± 56
Peritoneal macrophages [5]; daily dose 25 μg
  Difference in absorbancies of the test sample and of the blank per mg of cell protein, x ± s.e.m: 518 ± 20
Peritoneal macrophages [5]; dose 0.25 μg
  increase of macrophage activity: did not increase the activity
Peritoneal macrophages [5]; dose 2.5 μg
  increase of macrophage activity: 40%
Peritoneal macrophages [5]; dose 25 μg
  increase of macrophage activity: 90%
Peritoneal macrophages [5]; doses of 2.5 and 25 μg, p>0.05
  difference in macrophage activation between muramyl dipeptide and compound 1: no statistically significant difference
[6]; all described immunological effects
  factor by which the immunologically effective dose is lower than LD50: at least 2000 times
[6]; i.v. application, male mice
  average lethal dose (LD50): > 250 mg/kg
Fibrosarcoma SA-1; 2.5 μg daily i.p.
  Time needed for the tumour growth to the volume of 150 mm^3, Number of days (± SD): 7.3 ± 1.5 days
  Growth delay (± SD): 1.8 ± 0.5
Fibrosarcoma SA-1; 25.0 μg daily i.p.
  Time needed for the tumour growth to the volume of 150 mm^3, Number of days (± SD): 7.0 ± 1.7 days
  Growth delay (± SD): 1.5 ± 0.5
Fibrosarcoma SA-1; 25 μg versus 2.5 μg
  difference in antitumour activity between the higher and the lower dose: no statistically significant difference
Fibrosarcoma SA-1; dose of 2.5 μg and dose of 25 μg
  antitumour activity in comparison to the control: moderate and statistically significant
Peritoneal macrophages [7]; [8]
  Difference in absorbancies of the test sample and of the blank per mg of cell protein, x ± s.e.m: 1480 ± 336
Peritoneal macrophages [7]; [9]
  Difference in absorbancies of the test sample and of the blank per mg of cell protein, x ± s.e.m: 1630 ± 297
Peritoneal macrophages [7]; [10]
  Difference in absorbancies of the test sample and of the blank per mg of cell protein, x ± s.e.m: 2200 ± 177
Peritoneal macrophages [7]; dose 0.25 μg (lowest dose)
  increase of macrophage activity: about 50%
Peritoneal macrophages [7]; dose 2.5 μg
  increase of macrophage activity: about 60%
Peritoneal macrophages [7]; dose 25 μg
  increase of macrophage activity: about 120%
Peritoneal macrophages [7]; doses of 2.5 and 25 μg, p>0.05
  difference in macrophage activation between muramyl dipeptide and compound 1: no statistically significant difference
